The structures appear in SMILES notation.

Here are results for 45 compounds from patent publication US11918571B2, “Compounds and their methods of use” (Praxis Precision Medicines, Inc., priority 2017, dated 2024).

The assay deals with T1, human Nav1.6 (hNav1.6) (Homo sapiens, UniProt Q9UQD0).
T1 construct: expressed in transfected cells; host or cells: HEK-293 (G418 selection)
T1 sequence (Q9UQD0 whole entry): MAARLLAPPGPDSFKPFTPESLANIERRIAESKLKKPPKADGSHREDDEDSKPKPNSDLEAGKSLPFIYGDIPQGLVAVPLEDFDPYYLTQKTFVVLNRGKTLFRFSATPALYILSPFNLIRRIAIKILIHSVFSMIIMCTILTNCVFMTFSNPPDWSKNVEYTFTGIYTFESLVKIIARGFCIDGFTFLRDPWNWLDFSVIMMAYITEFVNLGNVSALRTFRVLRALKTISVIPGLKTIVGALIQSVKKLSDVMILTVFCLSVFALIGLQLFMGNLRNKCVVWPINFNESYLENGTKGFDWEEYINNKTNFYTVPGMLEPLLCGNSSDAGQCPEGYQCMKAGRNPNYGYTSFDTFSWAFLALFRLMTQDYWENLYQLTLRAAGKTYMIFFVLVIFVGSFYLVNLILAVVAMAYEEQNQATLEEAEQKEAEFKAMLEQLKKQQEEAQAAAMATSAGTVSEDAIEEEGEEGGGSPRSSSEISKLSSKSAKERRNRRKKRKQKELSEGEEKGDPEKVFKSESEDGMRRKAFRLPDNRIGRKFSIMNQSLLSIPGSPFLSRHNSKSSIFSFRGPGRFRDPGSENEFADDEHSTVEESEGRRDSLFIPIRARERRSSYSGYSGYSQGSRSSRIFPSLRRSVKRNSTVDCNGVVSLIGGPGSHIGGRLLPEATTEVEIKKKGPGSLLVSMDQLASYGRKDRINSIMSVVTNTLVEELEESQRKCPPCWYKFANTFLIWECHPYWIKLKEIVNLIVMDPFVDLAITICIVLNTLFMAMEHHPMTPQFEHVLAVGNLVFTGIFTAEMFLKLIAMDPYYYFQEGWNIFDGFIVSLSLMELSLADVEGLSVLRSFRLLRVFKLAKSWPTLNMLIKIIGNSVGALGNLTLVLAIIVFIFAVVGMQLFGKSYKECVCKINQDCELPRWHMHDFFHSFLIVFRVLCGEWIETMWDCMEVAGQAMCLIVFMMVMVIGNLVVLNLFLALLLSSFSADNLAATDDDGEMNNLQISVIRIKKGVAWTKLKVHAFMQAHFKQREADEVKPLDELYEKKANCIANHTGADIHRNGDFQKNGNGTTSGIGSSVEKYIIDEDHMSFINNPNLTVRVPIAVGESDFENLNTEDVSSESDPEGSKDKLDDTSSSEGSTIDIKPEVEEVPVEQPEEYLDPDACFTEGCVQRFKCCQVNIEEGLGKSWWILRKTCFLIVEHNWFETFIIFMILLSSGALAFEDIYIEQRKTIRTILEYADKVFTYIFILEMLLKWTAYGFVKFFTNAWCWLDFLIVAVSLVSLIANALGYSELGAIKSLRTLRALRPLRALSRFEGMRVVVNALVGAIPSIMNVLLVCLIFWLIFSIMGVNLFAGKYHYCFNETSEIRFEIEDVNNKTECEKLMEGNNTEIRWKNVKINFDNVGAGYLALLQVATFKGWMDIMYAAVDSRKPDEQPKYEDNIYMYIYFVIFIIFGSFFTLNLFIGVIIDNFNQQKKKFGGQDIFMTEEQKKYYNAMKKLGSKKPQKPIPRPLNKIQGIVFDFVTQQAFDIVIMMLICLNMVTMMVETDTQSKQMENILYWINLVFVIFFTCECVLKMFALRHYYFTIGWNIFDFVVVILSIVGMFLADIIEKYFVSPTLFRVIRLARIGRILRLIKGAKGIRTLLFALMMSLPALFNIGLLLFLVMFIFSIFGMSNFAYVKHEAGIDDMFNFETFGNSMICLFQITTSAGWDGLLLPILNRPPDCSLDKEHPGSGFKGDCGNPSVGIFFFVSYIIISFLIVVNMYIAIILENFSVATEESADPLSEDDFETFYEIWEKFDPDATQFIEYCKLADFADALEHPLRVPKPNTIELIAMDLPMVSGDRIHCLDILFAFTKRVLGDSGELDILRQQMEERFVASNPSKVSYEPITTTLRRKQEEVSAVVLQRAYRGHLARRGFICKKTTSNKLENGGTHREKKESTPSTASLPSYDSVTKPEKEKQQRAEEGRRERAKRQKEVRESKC
Description: Modulation of late sodium current (INaL), PatchXpress electrophysiology, ATX-II evoked. It counts as cell-based. As to conditions: HEK293; 1 μM compound; HEK-293 cells expressing recombinant human Nav1.6; late current evoked by 300 nM ATX-II; read-out: INaL v1.6 (1 μM, % Inhibition). The protocol: Functional characterization of exemplary compounds to modulate INaL expressed by the Nav1.6 voltage-gated sodium channel was accomplished using the PatchXpress™ high throughput electrophysiology platform (Molecular Devices, Sunnyvale, CA). HEK-293 cells expressing recombinant, human Nav1.6 (hNav1.6) were grown in DMEM/high-glucose Dulbecco's modified, 10% FBS, 2 mM sodium pyruvate, 10 mM HEPES and 400 μg/mL G418. Cells were grown to 50%-80% confluency prior to harvesting. Trypsinized cells were washed, allowed to recover for 1 hour and then resuspended in extracellular recording solution at a concentration of 1×10^6 cells/ml. The onboard liquid handling facility of the PatchXpress was used for dispensing cells and applying test compounds. Nay late currents were evoked by the application of 300 nM ATX-II. INaL was evoked by depolarizing pulses to 0 mV for 200 ms from a non-inactivating holding potential (e.g., −120 mV) at a frequency of 0.1 Hz. INaL amplitude and stability were determined by analyzing the mean current amplitude over the final 20 ms of the test pulse. Following steady state block with exemplary compounds (e.g., as described herein), a Na^+ free solution containing an impermeant cation (e.g., Choline or NDMG) was added to confirm the identify of the sodium current.
Results from this assay relating to percent inhibition of INaL at hNaV1.6 (measured using a procedure similar to described above but using HEK-293 cells expressing recombinant, human Nay 1.6 (h Nay 1.6) at 1 μM are summarized in Table 1 below. In this table, “A” indicates inhibition of less than 30%; “B” indicates inhibition of between about 30% to about 70%; and “C” indicates inhibition of greater than 70%.
What is called inhibition is the share of the control response that was lost under treatment. As to `Cc1nnn2ccc(-c3cnc(OCC(F)(F)F)c(F)c3)cc12` [Compound 8], the inhibition at 1 µM fell in the range of 30 to 70%.
Next, `Cc1cc(OC(F)(F)F)ccc1-c1ccn2nnc(C(F)(F)F)c2c1` [Compound 4]: above 70%; `COc1cc(OC(F)(F)F)ccc1-c1ccn2nnc(C)c2c1` [Compound 43]: above 70%.
Next, `FC(F)(F)COc1ccc(-c2ccn3nncc3c2)cn1` [Compound 15]: above 70%; `C[C@@H](Oc1ncc(-c2ccn3nnc(C(F)(F)F)c3c2)cc1F)C(F)(F)F` [Compound 30]: above 70%; `Cc1nnn2ccc(-c3cnc(OC4CC(F)(F)C4)c(F)c3)cc12` [Compound 12]: above 70%.
`CC(C)(Oc1ncc(-c2ccn3nncc3c2)cc1F)C(F)(F)F` [Compound 24]: the inhibition at 1 µM is above 70%.
As to `COCc1nnn2ccc(-c3cnc(OC(C)(C)C(F)(F)F)c(F)c3)cc12` [Compound 26], the inhibition at 1 µM was above 70%.
The result for `C[C@@H](Oc1ncc(-c2ccn3nnc(C(F)F)c3c2)cc1F)C(F)(F)F` [Compound 37] reads above 70%.
In the case of `Cc1nnn2ccc(-c3cnc(O[C@H](C)C(F)(F)F)c(F)c3)cc12` [Compound 21], the inhibition at 1 µM was above 70%.
Next, `COCc1nnn2ccc(-c3cnc(O[C@@H](C)C(F)(F)F)c(F)c3)cc12` [Compound 27]: above 70%.
The result for `C[C@H](Oc1ncc(-c2ccn3nncc3c2)cc1F)C(F)(F)F` [Compound 18, 5-[5-fluoro-6-[(15)-2,2,2-trifluoro-1-methyl-ethoxy]-3-pyridyl]triazolo[1,5-a]pyridine] reads above 70%; that for `[2H]c1nnn2ccc(-c3cnc(O[C@H](C)C(F)(F)F)c(F)c3)cc12` [Compound 32], above 70%.
The result for `Cc1nnn2ccc(-c3cnc(O[C@@H](C)C(F)(F)F)c(F)c3)cc12` [Compound 22] reads above 70%; that for `FC1(F)C[C@@H]1c1ccc(-c2ccn3nncc3c2)cc1` (single isomer, unassigned) [Compound 23-1], 30 to 70%.
In the case of `[2H]c1nnn2ccc(-c3cnc(O[C@@H](C)C(F)(F)F)c(F)c3)cc12` [Compound 33], the inhibition at 1 µM is above 70%.
Next, `Cc1nnn2ccc(-c3ccc(OC(F)(F)F)cc3)cc12` [Compound 7]: above 70%; `CC(C)(Oc1ncc(-c2ccn3nnc(C(F)F)c3c2)cc1F)C(F)(F)F` [Compound 39]: above 70%; `Cc1nnn2ccc(-c3cnc(OC(C)(C)C(F)(F)F)c(F)c3)cc12` [Compound 25]: above 70%.
Take `[2H]c1nnn2ccc(-c3cnc(OC(C)(C)C(F)(F)F)c(F)c3)cc12` [Compound 35]: the inhibition at 1 µM was above 70%.
Next, `COCc1cc(OC(F)(F)F)ccc1-c1ccn2nncc2c1` [Compound 2]: above 70%; `Cc1cc(OC(F)(F)F)ccc1-c1cc(C)n2nncc2c1` [Compound 5]: above 70%; `COCc1nnn2ccc(-c3cnc(OC4(C(F)(F)F)CCC4)c(F)c3)cc12` [Compound 29]: above 70%.
As for `Cc1nnn2ccc(-c3ccc(C4(C#N)CC4)cc3)cc12` [Compound 6], the inhibition at 1 µM lay within 30 to 70%.
With `Cc1cc(OC(F)(F)F)ccc1-c1ccn2nncc2c1` [Compound 1, 5-[2-methyl-4-(trifluoromethoxy)phenyl]triazolo[1,5-a]pyridine], the inhibition at 1 µM was in the range of 30 to 70%.
For `C[C@H](Oc1ncc(-c2ccn3nnc(C(F)(F)F)c3c2)cc1F)C(F)(F)F` [Compound 31], the inhibition at 1 µM is above 70%.
The result for `Cc1cc(-c2cnc(O[C@@H](C)C(F)(F)F)c(F)c2)cc2cnnn12` [Compound 45] reads above 70%; that for `[2H]c1nnn2ccc(-c3cnc(OCC(F)(F)F)c(F)c3)cc12` [Compound 34], above 70%; that for `[2H]C([2H])([2H])OCc1nnn2ccc(-c3cnc(OC(C)(C)C(F)(F)F)c(F)c3)cc12` [Compound 40], above 70%.
Take `[2H]C([2H])(OC)c1nnn2ccc(-c3cnc(OC(C)(C)C(F)(F)F)c(F)c3)cc12` [Compound 41]: the inhibition at 1 µM was above 70%.
As to `Cc1cc(-c2cnc(O[C@H](C)C(F)(F)F)c(F)c2)cc2cnnn12` [Compound 44], the inhibition at 1 µM fell in the range of 30 to 70%.
The result for `[2H]C([2H])([2H])c1nnn2ccc(-c3cnc(OC(C)(C)C(F)(F)F)c(F)c3)cc12` [Compound 42] reads above 70%.
The result for `Cc1cc(-c2cnc(OCC(F)(F)F)c(F)c2)cc2cnnn12` [Compound 46] reads 30 to 70%.
Consider `Cc1cc(OC(F)(F)F)ccc1-c1ccn2nnc(C)c2c1` [Compound 3], for which the inhibition at 1 µM is above 70%.
Next, `[2H]c1nnn2ccc(-c3cnc(OC4(C(F)(F)F)CCC4)c(F)c3)cc12` [Compound 36]: above 70%; `C[C@H](Oc1ncc(-c2ccn3nnc(C(F)F)c3c2)cc1F)C(F)(F)F` [Compound 38]: above 70%; `C[C@@H](Oc1ncc(-c2ccn3nncc3c2)cc1F)C(F)(F)F` [Compound 17, 5-[5-fluoro-6-[(1R)-2,2,2-trifluoro-1-methyl-ethoxy]-3-pyridyl]triazolo[1,5-a]pyridine]: above 70%.
Next, `FC(F)(F)Oc1ccc(-c2ccn3nncc3c2)cc1` [Compound 9]: above 70%; `Fc1cc(-c2ccn3nncc3c2)cnc1OC1CC(F)(F)C1` [Compound 11]: above 70%.
The result for `COCc1nnn2ccc(-c3ccc(OC(F)(F)F)cc3C)cc12` [Compound 13] reads above 70%.
As for `FC(F)Oc1ccc(-c2ccn3nncc3c2)cc1` [Compound 14], the inhibition at 1 µM lay within 30 to 70%.
Next, `COCc1cc(-c2ccn3nncc3c2)ccc1OC(F)(F)F` [Compound 16]: 30 to 70%.
Next, `COCc1nnn2ccc(-c3cnc(OCC(F)(F)F)c(F)c3)cc12` [Compound 20]: 30 to 70%; `FC1(F)C[C@H]1c1ccc(-c2ccn3nncc3c2)cc1` (single isomer, unassigned) [Compound 23-2]: above 70%; `Fc1cc(-c2ccn3nncc3c2)cnc1OCC(F)(F)F` [Compound 10]: 30 to 70%.
